Data published in patent US20150065416A1, “NOVEL DRUG COMBINATION” (FAB PHARMA SAS, priority 2013, published 2015).
≈ marks a conversion by molar mass, not a printed value. Where two headings read alike, the source gives them in different places.

Experiments:
[1] = tested on: A. baumannii CIP 5377, CIP 7034, AYE, SAN, RCH; experiment: Antimicrobial susceptibility testing (MIC, broth microdilution, EUCAST; Example 5); format: cell-based, Acinetobacter baumannii; conditions: Acinetobacter baumannii
Text: A. baumannii CIP 5377 (ATCC® 17978): low cephalosporinase producing strain, susceptible to meropenem and amikacin, isolated in an infected patient
A. baumannii CIP 7034: low cephalosporinase producing strain, susceptible to meropenem and amikacin A. baumannii AYE ATCC® BAA1710™: extended spectrum beta-lactamase producing strain susceptible to meropenem and resistant to amikacin
A. baumannii SAN-94040 (SAN): cephalosporinase-overproducing strain, susceptible to meropenem and intermediate to amikacin and resistant to fluoroquinolones, isolated from blood cultures of an intensive care patient with nosocomial pneumonia from North Africa (Algeria).
A. baumannii RCH-69: cephalosporinase producing strain; low susceptibility to imipenem and resistant to amikacin.

A. baumannii SAN-94040 [2] = experiment: Mouse model of A. baumannii pneumonia, Study 1: survival; format: in vivo, Acinetobacter baumannii
Method: (§1) The bacterial inoculum was prepared in order to obtain a suspension containing 10^8 CFU/mL of Acinetobacter baumannii in saline.
(§2) Experimentations were performed with six-week old female C3H/HeN mice (18-20 g, Breeding Centre JANVIER (Ile saint Genest Mayenne 53)) because of their particular susceptibility to Acinetobacter baumannii and the reproducibility of the results (inbreeding in the breed). Each mouse was individually marked and housed in cages containing five animals/cage under ventilated and controlled (temperature and humidity) atmosphere.
(§3) The mice were rendered transiently neutropenic by 2 intra-peritoneal (IP) injections of 150 μL of cyclophosphamide (Endoxan® 150 mg/kg) 4 (D-4) and 3 (D-3) days before the Acinetobacter baumannii inoculation (Day 0). This transient immunosuppression was sufficient to facilitate the development of the A. baumannii pneumonia while allowing the recovery of the neutrophil influx 2 (Day 2) days after inoculation in order to avoid or limit a systemic bacterial dissemination.
(§4) Mice were anesthetized by a mixture of oxygen and isoflurane. The bacterial inoculation was performed on Day 0 by intra-tracheal installation using an endotracheal catheter (50 μl of the suspension, thus 5.106 CFU). The positioning of the catheter in the trachea (instead of in the oesophagus) was checked by a “ring test”. The bacterial count in lungs was checked for all study groups by sacrificing one mouse immediately after inoculation.
Survival observations were assessed twice daily, up to 4 days post infection. The survival rates were compared with the Chi-square test or the Fisher exact test as appropriate. The survival curves were compared by the Kaplan-Meier method.
The aim of this experiment was to assess the […], with compound (I) via intra-peritoneal route at 200 mg/kg 3 times daily (every 8 hours) for 1 day alone and in combination with meropenem at 50 mg/kg 3 times daily (every 8 hours) for 1 day or with amikacin at 18 mg/kg 3 times daily (every 8 hours) for 1 day.

A. baumannii SAN-94040 [3] = experiment: Mouse model of A. baumannii pneumonia, Study 2: bacterial counts in blood and tissues; format: in vivo, Acinetobacter baumannii
Method: as §1, §2, §3, §4
Sample time points: T0 (pre-inoculation), T24h (post inoculation), T48h and T72h.
Blood samples preparation: At each time point, three mice were sacrificed per group by cervical dislocation.
Tissue samples preparation: At each time point, three mice were sacrificed per group. Lungs, kidneys, liver and spleen were collected after the blood sampling and cervical dislocation. Tissues were wiped with a sterile gauze to remove blood contaminant outside. Tissues were then be weighed, finely ground and plated on agar for quantitative culture. Cultures were incubated at 37° C. for 18 to 24 hours.
The aim of this experiment was to assess the bacterial counts in blood, lungs, spleen, liver and kidneys of transiently neutropenic female C3H/HeN mice administered, 3 hours post-inoculation of A. baumannii SAN-94040 via intra-tracheal route, with compound (I) via intra-peritoneal route at 200 mg/kg 3 times daily (every 8 hours) for 1 day alone and in combination with meropenem at 50 mg/kg 3 times daily (every 8 hours) for 1 day or with amikacin at 18 mg/kg 3 times daily (every 8 hours) for 1 day.
All results concerning bacterial counts were expressed from Day 0 (inoculation) to 72 hours post-inoculation (Day 3). Bacterial counts on Day 3 were carried out only on surviving mice and results were more objectionable for interpretation. On Day 0, only bacterial count in lung of control mice was performed. Bacterial cell counts were determined as set out in the General Procedures.

A. baumannii isolates = experiment: Checkerboard testing (compound (I)/antibacterial agent interaction, FIC index); format: cell-based, Acinetobacter baumannii
Method: Checkerboard interaction studies were performed using 5 isolates from each of the sub-groups and time kill studies were performed using 3 isolates from each sub-group.
Checkerboards (20 isolates, 5 per sub-group) were prepared so as to contain multiple concentrations of compound (I) with different additional antibacterial agents (amikacin, gentamicin, colistin, meropenem and tobramycin) as follows:
Serial two-fold dilutions of the antimicrobial agents alone or in combination in wells of 96 well microtiter plates were inoculated with the appropriate inoculum so that each well contained approximately 4-5×10^4 CFU/ml. Plates were incubated at 35° C. for 16-20 hours. Combination concentrations were tested between 0.25×MIC and 2×MIC. Growth and sterility controls were also included in each plate.
Synergy, indifference and antagonism were calculated based upon the use of the fractional inhibitory concentration (FIC) indices as described by Pillai, Moellering & Eliopoulos (2005) whereby:
Synergism=FIC index of ≦0.5 Indifference=FIC index >1 but ≦4 Additivity >0.5 to 1 Antagonism=FIC index of >4
Checkerboard studies were carried out as described in General Procedures using twenty different A. baumannii isolates with 5 per sub-group of: susceptible, amikacin-resistant, colistin-resistant and meropenem-resistant.

[4] = Study 1, 24 h after infection, doses as E210
[5] = Study 1, 72 h after infection, doses as E210

## CCc1cc(O)c(Oc2ccc(C(N)=O)cc2F)cc1F [compound (I), 4-(4-ethyl-5-fluoro-2-hydroxyphenoxy)-3-fluorobenzamide]
[1]; 5 isolates of A. baumannii, read-out: MICs ranging
  MIC: 1 to 2 µg/mL (≈ 3.41 to 6.82 µM)
[1]; A. baumannii AYE, read-out: MIC
  MIC: 2 µg/mL (≈ 6.82 µM)
[1]; A. baumannii CIP 5377, read-out: MIC
  MIC: 2 µg/mL (≈ 6.82 µM)
[1]; A. baumannii CIP 7034, read-out: MIC
  MIC: 1 µg/mL (≈ 3.41 µM)
[1]; A. baumannii RCH, read-out: MIC
  MIC: 2 µg/mL (≈ 6.82 µM)
[1]; A. baumannii SAN, read-out: MIC
  MIC: 2 µg/mL (≈ 6.82 µM)
A. baumannii SAN-94040 [2]; Study 1, 0 h after infection, doses as E210
  survivors (%): 100%
A. baumannii SAN-94040 [2]; [4]
  No. of survivors: 10
  survivors (%): 71%
A. baumannii SAN-94040 [2]; Study 1, 48 h after infection, doses as E210
  No. of survivors: 0
A. baumannii SAN-94040 [2]; [5]
  No. of survivors: 0
  survivors (%): 0%
A. baumannii SAN-94040 [2]; Study 1, 96 h after infection, doses as E210
  No. of survivors: 0
A. baumannii SAN-94040 [2]; Study 1, C3H/HeN mice, 0 h after SAN-94040 infection, compound (I) 200 mg/kg, amikacin 18 mg/kg, meropenem 50 mg/kg q 8 h I.P.
  No. of survivors: 14
A. baumannii SAN-94040 [2]; Study 1, SAN-94040
  time post-infection within which all animals died: ≤ 48 h
A. baumannii SAN-94040 [3]; Study 2, 24 h, compound (I) 200 mg/kg Q8h, amikacin 18 mg/kg, meropenem 50 mg/kg Q8h I.P. for 1 day
  lung bacterial counts: 4.72E+09 CFU/g Lung
A. baumannii SAN-94040 [3]; Study 2, 48 h
  lung bacterial counts: 3.75E+05 CFU/g Lung
A. baumannii isolates; A. baumannii 441142, colistin-resistant
  MIC: 2 µg/mL
A. baumannii isolates; A. baumannii 441160, colistin-resistant
  MIC: 4 µg/mL
A. baumannii isolates; A. baumannii 463996, colistin-resistant
  MIC: 2 µg/mL
A. baumannii isolates; A. baumannii 466936, colistin-resistant
  MIC: 16 µg/mL
A. baumannii isolates; A. baumannii 618649, meropenem-resistant
  MIC: 4 µg/mL
A. baumannii isolates; A. baumannii 638115, amikacin-resistant
  MIC: 8 µg/mL
A. baumannii isolates; A. baumannii 655932, amikacin-resistant
  MIC: 2 µg/mL
A. baumannii isolates; A. baumannii 661954, amikacin-resistant
  MIC: 8 µg/mL
A. baumannii isolates; A. baumannii 667848, meropenem-resistant
  MIC: 8 µg/mL
A. baumannii isolates; A. baumannii 670348, susceptible
  MIC: 4 µg/mL
A. baumannii isolates; A. baumannii 671050, meropenem-resistant
  MIC: 8 µg/mL
A. baumannii isolates; A. baumannii 672190, susceptible
  MIC: 4 µg/mL
A. baumannii isolates; A. baumannii 674340, susceptible
  MIC: 1 µg/mL
A. baumannii isolates; Acinetobacter baumannii, A. baumannii 441142, colistin-resistant, read-out: MIC
  MIC: 4 µg/mL
A. baumannii isolates; Acinetobacter baumannii, A. baumannii 441160, colistin-resistant, read-out: MIC
  MIC: 8 µg/mL
A. baumannii isolates; Acinetobacter baumannii, A. baumannii 463996, colistin-resistant, read-out: MIC
  MIC: 4 µg/mL
A. baumannii isolates; Acinetobacter baumannii, A. baumannii 466936, colistin-resistant, read-out: MIC
  MIC: 8 µg/mL
A. baumannii isolates; Acinetobacter baumannii, A. baumannii 517303, colistin-resistant, read-out: MIC
  MIC: 4 µg/mL
A. baumannii isolates; Acinetobacter baumannii, A. baumannii 618649, meropenem-resistant, read-out: MIC
  MIC: 2 µg/mL
A. baumannii isolates; Acinetobacter baumannii, A. baumannii 625917, meropenem-resistant, read-out: MIC
  MIC: 4 µg/mL
A. baumannii isolates; Acinetobacter baumannii, A. baumannii 628760, susceptible, read-out: MIC
  MIC: 2 µg/mL
A. baumannii isolates; Acinetobacter baumannii, A. baumannii 637723, amikacin-resistant, read-out: MIC
  MIC: 2 µg/mL
A. baumannii isolates; Acinetobacter baumannii, A. baumannii 638115, amikacin-resistant, read-out: MIC
  MIC: 4 µg/mL
A. baumannii isolates; Acinetobacter baumannii, A. baumannii 650216, meropenem-resistant, read-out: MIC
  MIC: 8 µg/mL
A. baumannii isolates; Acinetobacter baumannii, A. baumannii 655932, amikacin-resistant, read-out: MIC
  MIC: 4 µg/mL
A. baumannii isolates; Acinetobacter baumannii, A. baumannii 661954, amikacin-resistant, read-out: MIC
  MIC: 4 µg/mL
A. baumannii isolates; Acinetobacter baumannii, A. baumannii 667848, meropenem-resistant, read-out: MIC
  MIC: 4 µg/mL
A. baumannii isolates; Acinetobacter baumannii, A. baumannii 670348, susceptible, read-out: MIC
  MIC: 2 µg/mL
A. baumannii isolates; Acinetobacter baumannii, A. baumannii 671050, meropenem-resistant, read-out: MIC
  MIC: 4 µg/mL
A. baumannii isolates; Acinetobacter baumannii, A. baumannii 672190, susceptible, read-out: MIC
  MIC: 8 µg/mL
A. baumannii isolates; Acinetobacter baumannii, A. baumannii 674340, susceptible, read-out: MIC
  MIC: 2 µg/mL
